Test results as given in PMC3944410 (Anesthesiology, 2014).
Values joined by “and” are separate entries in the source; they are usually repeats but may differ in a detail not shown here. Equal entries are not always repeated.

What was measured:
[1] = 10 mg of dezocine, postoperative patients (n=187); cited from earlier work
[2] = cited from earlier work
[3] = molecular target: recombinant human kappa opioid receptor (Homo sapiens, UniProt P41145); assay: biochemical; settings: IC50 of inhibition of agonist-induced G protein activation
Sequence of recombinant human kappa opioid receptor (P41145 whole entry): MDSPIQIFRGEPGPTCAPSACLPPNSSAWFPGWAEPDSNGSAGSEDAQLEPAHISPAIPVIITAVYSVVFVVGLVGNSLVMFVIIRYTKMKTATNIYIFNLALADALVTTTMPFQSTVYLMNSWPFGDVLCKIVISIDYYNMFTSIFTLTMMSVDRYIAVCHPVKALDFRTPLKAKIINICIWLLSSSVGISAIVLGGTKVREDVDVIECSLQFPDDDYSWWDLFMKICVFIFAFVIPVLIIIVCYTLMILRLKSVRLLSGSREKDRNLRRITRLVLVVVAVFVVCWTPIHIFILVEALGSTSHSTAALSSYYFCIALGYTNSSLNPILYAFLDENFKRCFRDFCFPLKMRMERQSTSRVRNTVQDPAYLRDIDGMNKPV

Q: With `C[C@@]12CCCCC[C@@H](Cc3ccc(O)cc31)[C@@H]2N` [dezocine] as the compound, how does the “analgesic activity compared with meperidine” value [1] read?
A: same analgesic activity as 50 mg of meperidine

Q: And the “decrease of anesthetic requirement” value [2]?
A: up to 50%

Q: What about the IC50 [3] of the same compound?
A: ~350 nM and ~800 nM
